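Grown in 96-well plates, cells were treated for 48 hours with each compound at five concentrations. Insufficient inhibition: endpoint recorded as highest concentration tested. GI50 is the concentration that inhibits growth by half.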 The source made the active and inactive calls. No stated cut-off is given here; in the data, active = GI50 up to about 1.1 µM and inactive = higher.
What was measured:
Assay in all cases: NCI-60 cell line screen, 48 h
[1] = system: A549
[2] = system: SF-268
[3] = system: HT-29
[4] = system: SK-OV-3
[5] = system: KM12
[6] = system: HOP-92
[7] = system: OVCAR-8
[8] = system: UACC-62
[9] = system: HOP-18
[10] = system: MOLT-4
[11] = system: KM-20L2
[12] = system: RXF 631
[13] = system: HCT-116
[14] = system: SW-620
[15] = system: EKVX
[16] = system: SN12C
[17] = system: OVCAR-4
[18] = system: DLD-1
[19] = system: UO-31
[20] = system: LXFL 529
[21] = system: NCI-H522
[22] = system: A498
[23] = system: SK-MEL-5
[24] = system: M19-MEL
[25] = system: OVCAR-3
[26] = system: SR
[27] = system: OVCAR-5
[28] = system: M14
[29] = system: NCI-H460
[30] = system: U-251
[31] = system: SF-295
[32] = system: HCC 2998
[33] = system: NCI-H23
[34] = system: SK-MEL-28
[35] = system: SK-MEL-2
[36] = system: ACHN
[37] = system: SNB-78
[38] = system: TK-10
[39] = system: SF-539
[40] = system: LOX IMVI
[41] = system: SNB-19
[42] = system: XF498
[43] = system: SNB-75
[44] = system: K562
[45] = system: 786-0
[46] = system: CAKI-1
[47] = system: HCT-15
[48] = system: CCRF-CEM
[49] = system: HOP-62
[50] = system: RXF 393
[51] = system: Malme-3M
[52] = system: COLO 205
[53] = system: NCI/ADR-RES
[54] = system: MCF7
[55] = system: DU-145
[56] = system: PC-3
[57] = system: MDA-MB-435
[58] = system: UACC-257
[59] = system: BT-549
[60] = system: RPMI-8226
[61] = system: MDA-MB-231
[62] = system: IGROV-1
[63] = system: NCI-H226
[64] = system: Hs-578T
[65] = system: MDA-N
[66] = system: HL-60
[67] = system: T47D
[68] = system: DMS-114

CCN(CC)CC(C)(C)C(=O)/C=C/c1ccc(C)cc1
GI50 [1]: 12.9 µM (inactive) | GI50 [2]: 10.1 µM (inactive) | GI50 [3]: 3.86 µM (inactive) | GI50 [4]: 22.6 µM (inactive) | GI50 [5]: 5.87 µM (inactive) | GI50 [6]: 1.91 µM (inactive) | GI50 [7]: 11.8 µM (inactive) | GI50 [8]: 13.6 µM (inactive) | GI50 [9]: 11.4 µM (inactive) | GI50 [10]: 3.39 µM (inactive) | GI50 [11]: 4.17 µM (inactive) | GI50 [12]: 9.42 µM (inactive) | GI50 [13]: 4.3 µM (inactive) | GI50 [14]: 3.55 µM (inactive) | GI50 [15]: 4.88 µM (inactive) | GI50 [16]: 7.64 µM (inactive) | GI50 [17]: 11.6 µM (inactive) | GI50 [18]: 11.5 µM (inactive) | GI50 [19]: 10.5 µM (inactive) | GI50 [20]: 7.31 µM (inactive) | GI50 [21]: 3.03 µM (inactive) | GI50 [22]: 4.54 µM (inactive) | GI50 [23]: 14.2 µM (inactive) | GI50 [24]: 9.46 µM (inactive) | GI50 [25]: 9.14 µM (inactive) | GI50 [26]: 3.61 µM (inactive) | GI50 [27]: 14.5 µM (inactive) | GI50 [28]: 12.1 µM (inactive) | GI50 [29]: 6.08 µM (inactive) | GI50 [30]: 15.3 µM (inactive) | GI50 [31]: 13.2 µM (inactive) | GI50 [32]: 10 µM (inactive) | GI50 [33]: > 10 µM (inactive) | GI50 [34]: 13.5 µM (inactive) | GI50 [35]: 12.7 µM (inactive) | GI50 [36]: 14.6 µM (inactive) | GI50 [37]: 10.7 µM (inactive) | GI50 [38]: 14.5 µM (inactive) | GI50 [39]: 13.3 µM (inactive) | GI50 [40]: 11 µM (inactive) | GI50 [41]: 11.8 µM (inactive) | GI50 [42]: 7.96 µM (inactive) | GI50 [43]: 6.98 µM (inactive) | GI50 [44]: 3.03 µM (inactive) | GI50 [45]: 10.7 µM (inactive) | GI50 [46]: 12.6 µM (inactive) | GI50 [47]: 3.61 µM | GI50 [48]: 2.82 µM (inactive) | GI50 [49]: 18.5 µM (inactive) | GI50 [50]: 9.62 µM (inactive) | GI50 [51]: 9.46 µM (inactive)

CCCCCCC/C=C1\CCC(CN(C)C)C1=O (configuration not stated)
GI50 [1]: 22.6 µM (inactive) | GI50 [2]: 17.4 µM (inactive) | GI50 [3]: 14.6 µM (inactive) | GI50 [4]: 23.7 µM (inactive) | GI50 [5]: 4.07 µM (inactive) | GI50 [6]: 17.3 µM (inactive) | GI50 [7]: 9.77 µM (inactive) | GI50 [8]: 14.6 µM (inactive) | GI50 [9]: 17.2 µM (inactive) | GI50 [10]: 2.47 µM (inactive) | GI50 [11]: 19.1 µM (inactive) | GI50 [12]: 10.9 µM (inactive) | GI50 [13]: 7.23 µM (inactive) | GI50 [14]: 6.19 µM (inactive) | GI50 [15]: 15.5 µM (inactive) | GI50 [16]: 9.1 µM (inactive) | GI50 [17]: 16.6 µM (inactive) | GI50 [18]: 7.1 µM (inactive) | GI50 [19]: 15.6 µM (inactive) | GI50 [20]: 7.78 µM (inactive) | GI50 [21]: 5.48 µM (inactive) | GI50 [22]: 19.9 µM (inactive) | GI50 [52]: 10.2 µM (inactive) | GI50 [53]: 2.61 µM (inactive) | GI50 [23]: 18.7 µM (inactive) | GI50 [54]: 3.24 µM (inactive) | GI50 [55]: 14.7 µM (inactive) | GI50 [25]: 9.38 µM (inactive) | GI50 [26]: 3.47 µM (inactive) | GI50 [27]: 19.8 µM (inactive) | GI50 [28]: 9.71 µM (inactive) | GI50 [56]: 14.5 µM (inactive) | GI50 [29]: 19.1 µM (inactive) | GI50 [30]: 17.5 µM (inactive) | GI50 [31]: 16.3 µM (inactive) | GI50 [32]: 17.7 µM (inactive) | GI50 [33]: 16.4 µM (inactive) | GI50 [57]: 5.66 µM (inactive) | GI50 [58]: 15.1 µM (inactive) | GI50 [34]: 16.9 µM (inactive) | GI50 [35]: 15.9 µM (inactive) | GI50 [59]: 14.7 µM (inactive) | GI50 [36]: 17.6 µM (inactive) | GI50 [37]: 16.4 µM (inactive) | GI50 [38]: 7.48 µM (inactive) | GI50 [39]: 16.6 µM (inactive) | GI50 [60]: 0.968 µM (active) | GI50 [61]: 3.2 µM (inactive) | GI50 [40]: 6.85 µM (inactive) | GI50 [41]: 16.9 µM (inactive) | GI50 [62]: 19.1 µM (inactive) | GI50 [63]: 22.4 µM (inactive) | GI50 [64]: 3.88 µM (inactive) | GI50 [42]: 20.5 µM (inactive) | GI50 [65]: 13.2 µM (inactive) | GI50 [43]: 18.5 µM (inactive) | GI50 [44]: 2.83 µM (inactive) | GI50 [45]: 1.76 µM (inactive) | GI50 [46]: 16.3 µM (inactive) | GI50 [47]: 8.36 µM | GI50 [48]: 3.03 µM (inactive) | GI50 [49]: 17.6 µM (inactive) | GI50 [66]: 3.02 µM (inactive) | GI50 [67]: 2.98 µM (inactive) | GI50 [50]: 5.93 µM (inactive) | GI50 [51]: 10.8 µM (inactive)

Cc1ccc2c(c1)C1(OC(=O)c3ccccc31)c1ccc(F)cc1O2 (configuration not stated)
GI50 [1]: 48.9 µM (inactive) | GI50 [2]: 68.4 µM (inactive) | GI50 [3]: 39.3 µM (inactive) | GI50 [4]: > 100 µM (inactive) | GI50 [5]: 51.3 µM (inactive) | GI50 [6]: 16.1 µM (inactive) | GI50 [7]: > 100 µM (inactive) | GI50 [8]: 70.6 µM (inactive) | GI50 [9]: > 100 µM (inactive) | GI50 [10]: 20.3 µM (inactive) | GI50 [11]: 44.1 µM (inactive) | GI50 [12]: 83.9 µM (inactive) | GI50 [13]: 32.7 µM (inactive) | GI50 [14]: 34.6 µM (inactive) | GI50 [15]: 59 µM (inactive) | GI50 [16]: > 100 µM (inactive) | GI50 [17]: 49.8 µM (inactive) | GI50 [18]: 61.8 µM (inactive) | GI50 [19]: 20.3 µM (inactive) | GI50 [20]: 56.5 µM (inactive) | GI50 [21]: 23.9 µM (inactive) | GI50 [52]: 38.7 µM (inactive) | GI50 [68]: 34.6 µM (inactive) | GI50 [23]: 32.7 µM (inactive) | GI50 [24]: 57 µM (inactive) | GI50 [25]: 55.2 µM (inactive) | GI50 [26]: 25.5 µM (inactive) | GI50 [27]: > 100 µM (inactive) | GI50 [28]: 28.6 µM (inactive) | GI50 [32]: 66.1 µM (inactive) | GI50 [58]: 31 µM (inactive) | GI50 [35]: 43.3 µM (inactive) | GI50 [38]: > 100 µM (inactive) | GI50 [60]: 24.2 µM (inactive) | GI50 [40]: 39.6 µM (inactive) | GI50 [62]: > 100 µM (inactive) | GI50 [63]: 18.7 µM (inactive) | GI50 [42]: 82.8 µM (inactive) | GI50 [44]: 35 µM (inactive) | GI50 [45]: 77.6 µM (inactive) | GI50 [46]: 30 µM (inactive) | GI50 [48]: 31.8 µM (inactive) | GI50 [49]: > 100 µM (inactive) | GI50 [66]: 21.7 µM (inactive) | GI50 [51]: 67.8 µM (inactive)

From ChEMBL document CHEMBL1201862, “PubChem BioAssay data set” (2004)
